# Laboratory results published in patent publication US20170334899A1, “AMINO-SUBSTITUTED ISOTHIAZOLES” (Bayer Pharma Aktiengesellschaft, priority 2014, published 2017).
# Target: T1, human kinase Mps-1 (Homo sapiens, UniProt P33981)
# T1 construct: N-terminally GST-tagged human full length recombinant Mps-1 kinase; GST (N); purchased Invitrogen, Karslruhe, Germany PV4071
# T1 sequence (P33981 1-857): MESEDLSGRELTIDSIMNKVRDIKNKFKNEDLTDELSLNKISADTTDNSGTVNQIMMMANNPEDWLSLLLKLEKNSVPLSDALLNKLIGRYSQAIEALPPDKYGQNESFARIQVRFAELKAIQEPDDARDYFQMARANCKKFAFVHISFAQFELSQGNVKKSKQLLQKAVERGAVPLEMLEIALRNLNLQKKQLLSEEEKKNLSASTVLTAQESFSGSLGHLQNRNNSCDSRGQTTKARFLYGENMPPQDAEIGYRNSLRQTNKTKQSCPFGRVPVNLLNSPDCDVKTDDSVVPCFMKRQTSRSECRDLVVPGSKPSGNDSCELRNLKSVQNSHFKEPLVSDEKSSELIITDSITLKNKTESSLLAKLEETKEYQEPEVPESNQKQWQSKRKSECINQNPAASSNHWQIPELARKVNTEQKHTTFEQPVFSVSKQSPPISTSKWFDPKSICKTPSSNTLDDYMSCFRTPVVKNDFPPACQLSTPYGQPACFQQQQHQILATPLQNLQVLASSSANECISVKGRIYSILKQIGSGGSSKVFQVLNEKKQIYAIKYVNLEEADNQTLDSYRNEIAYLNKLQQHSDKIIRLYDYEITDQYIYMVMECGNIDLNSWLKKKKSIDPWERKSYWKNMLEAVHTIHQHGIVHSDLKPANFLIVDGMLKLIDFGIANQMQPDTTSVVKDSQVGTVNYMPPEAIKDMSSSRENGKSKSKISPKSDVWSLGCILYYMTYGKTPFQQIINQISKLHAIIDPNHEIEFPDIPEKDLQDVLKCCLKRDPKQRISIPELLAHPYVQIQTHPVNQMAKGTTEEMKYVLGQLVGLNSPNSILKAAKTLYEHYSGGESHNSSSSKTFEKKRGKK
# Test: Mps-1 kinase assay (TR-FRET)
# Type: biochemical
# Conditions: Mps-1 TR-FRET kinase assay; avg; read-out: Mps1 avg (IC50 [mol/l])
# How it was run: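 Inhibition normalised between uninhibited reaction (0%) and enzyme-free wells (100%), using the blank-corrected TR-FRET 665/620 nm ratio after EDTA stop. Reaction: ~0.5 nM GST-Mps-1 full length, 10 μM ATP, 1 μM biotin-peptide, 60 min at 22 °C, after 15 min compound pre-binding, pH 7.7.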
row,SMILES,IC50 [µM]
1,"COCCOc1ccc(NC(=O)c2c(C)nsc2Nc2nc3c(C(F)(F)F)cccc3s2)cc1F [Example 1, N-[3-Fluoro-4-(2-methoxyethoxy)phenyl]-3-methyl-5-{[4-(trifluoromethyl)-1,3-benzothiazol-2-yl]amino}-1,2-thiazole-4-carboxamide]",≥ 20
2,"Cc1nsc(Nc2nc3c(C(F)(F)F)cccc3s2)c1C(=O)Nc1ccc(OCCO)nc1 [Example 2, N-[6-(2-Hydroxyethoxy)pyridin-3-yl]-3-methyl-5-{[4-(trifluoromethyl)-1,3-benzo-thiazol-2-yl]amino}-1,2-thiazole-4-carboxamide]",≥ 20
3,"COCCOc1ccc(NC(=O)c2c(C)nsc2Nc2nc3c(C(F)(F)F)cccc3s2)cn1 [Example 3, N-[6-(2-Methoxyethoxy)pyridin-3-yl]-3-methyl-5-{[4-(trifluoromethyl)-1,3-benzo-thiazol-2-yl]amino}-1,2-thiazole-4-carboxamide]",≥ 20
4,"Cc1nsc(Nc2nc3c(C(F)(F)F)cccc3s2)c1C(=O)Nc1ccc(OCCO)c(F)c1 [Example 4, N-[3-Fluoro-4-(2-hydroxyethoxy)phenyl]-3-methyl-5-{[4-(trifluoromethyl)-1,3-benzothiazol-2-yl]amino}-1,2-thiazole-4-carboxamide]",≥ 20
5,"Cc1nsc(Nc2cnc(C(F)(F)F)cn2)c1C(=O)Nc1ccc(OC2CCN(C(=O)OC(C)(C)C)CC2)nc1 [Example 5, tert-Butyl 4-[(5-{[(3-methyl-5-{[5-(trifluoromethyl)pyrazin-2-yl]amino}-1,2-thiazol-4-yl)carbonyl]amino}pyridin-2-yl)oxy]piperidine-1-carboxylate]",≥ 20
6,"Cc1nsc(Nc2cc(C#N)ccn2)c1C(=O)Nc1ccc(OC2CCCNC2)nc1 (stereo not drawn) [Example 35, 5-[(4-Cyanopyridin-2-yl)amino]-3-methyl-N-[6-(piperidin-3-yloxy)pyridin-3-yl]-1,2-thiazole-4-carboxamide]",≥ 20
7,"Cc1nsc(Nc2ccc(C#N)cn2)c1C(=O)Nc1ccc(OC2CCCN(C(=O)OC(C)(C)C)C2)nc1 (stereo not drawn) [Example 36, tert-Butyl 3-({5-[({5-[(5-cyanopyridin-2-yl)amino]-3-methyl-1,2-thiazol-4-yl}-carbonyl)amino]pyridin-2-yl}oxy)piperidine-1-carboxylate]",≥ 20
8,"Cc1nsc(Nc2ccc(C#N)cn2)c1C(=O)Nc1ccc(OC2CCCNC2)nc1 (stereo not drawn) [Example 37, 5-[(5-Cyanopyridin-2-yl)amino]-3-methyl-N-[6-(piperidin-3-yloxy)pyridin-3-yl]-1,2-thiazole-4-carboxamide]",≥ 20
9,"Cc1nsc(Nc2ccc(C#N)cn2)c1C(=O)Nc1ccc(OC2CCCN(CCF)C2)nc1 (stereo not drawn) [Example 38, 5-[(5-Cyanopyridin-2-yl)amino]-N-(6-{[1-(2-fluoroethyl)piperidin-3-yl]oxy}pyridin-3-yl)-3-methyl-1,2-thiazole-4-carboxamide]",≥ 20
10,"Cc1nsc(Nc2ccc(C#N)cn2)c1C(=O)Nc1ccc(OC2CCCN(CC(F)F)C2)nc1 (stereo not drawn) [Example 39, 5-[(5-Cyanopyridin-2-yl)amino]-N-(6-{[1-(2,2-difluoroethyl)piperidin-3-yl]oxy}-pyridin-3-yl)-3-methyl-1,2-thiazole-4-carboxamide]",≥ 20
11,"Cc1nsc(Nc2ccc(C#N)cn2)c1C(=O)Nc1ccc(OC2CCCN(CC(F)(F)F)C2)nc1 (stereo not drawn) [Example 40, 5-[(5-Cyanopyridin-2-yl)amino]-3-methyl-N-(6-{[1-(2,2,2-trifluoroethyl)piperidin-3-yl]oxy}pyridin-3-yl)-1,2-thiazole-4-carboxamide]",≥ 20
12,"Cc1nsc(Nc2cnccn2)c1C(=O)Nc1ccc(OC2CCCN(C(=O)OC(C)(C)C)C2)nc1 (stereo not drawn) [Example 41, tert-Butyl 3-{[5-({[3-methyl-5-(pyrazin-2-ylamino)-1,2-thiazol-4-yl]carbonyl}amino)-pyridin-2-yl]oxy}piperidine-1-carboxylate]",≥ 20
13,"Cc1nsc(Nc2cnc3ccccc3n2)c1C(=O)Nc1ccc(OCCCNC(=O)OC(C)(C)C)nc1 [Example 42, tert-Butyl (3-{[5-({[3-methyl-5-(quinoxalin-2-ylamino)-1,2-thiazol-4-yl]carbonyl}-amino)pyridin-2-yl]oxy}propyl)carbamate]",≥ 20
14,"Cc1nsc(Nc2cc(C#N)ccn2)c1C(=O)Nc1ccc(OCCCNC(=O)OC(C)(C)C)nc1 [Example 43, tert-Butyl [3-({5-[({5-[(4-cyanopyridin-2-yl)amino]-3-methyl-1,2-thiazol-4-yl}-carbonyl)amino]pyridin-2-yl}oxy)propyl]carbamate]",≥ 20
15,"Cc1nsc(Nc2cc(C#N)ccn2)c1C(=O)Nc1ccc(OCCCN)nc1 [Example 44, N-[6-(3-Aminopropoxy)pyridin-3-yl]-5-[(4-cyanopyridin-2-yl)amino]-3-methyl-1,2-thiazole-4-carboxamide]",≥ 20
16,"Cc1nsc(Nc2cc(C#N)ccn2)c1C(=O)Nc1ccc(OCCCNCC(F)F)nc1 [Example 45, 5-[(4-Cyanopyridin-2-yl)amino]-N-(6-{3-[(2,2-difluoroethyl)amino]propoxy}pyridin-3-yl)-3-methyl-1,2-thiazole-4-carboxamide]",≥ 20
17,"Cc1nsc(Nc2ccc(C#N)cn2)c1C(=O)Nc1ccc(OCCCNC(=O)OC(C)(C)C)nc1 [Example 46, tert-Butyl [3-({5-[({5-[(5-cyanopyridin-2-yl)amino]-3-methyl-1,2-thiazol-4-yl}-carbonyl)amino]pyridin-2-yl}oxy)propyl]carbamate]",≥ 20
18,"Cc1nsc(Nc2cnccn2)c1C(=O)Nc1ccc(OCCCNC(=O)OC(C)(C)C)nc1 [Example 47, tert-Butyl (3-{[5-({[3-methyl-5-(pyrazin-2-ylamino)-1,2-thiazol-4-yl]carbonyl}-amino)pyridin-2-yl]oxy}propyl)carbamate]",≥ 20
19,"Cc1nsc(Nc2cnccn2)c1C(=O)Nc1ccc(OCCCN)nc1 [Example 48, N-[6-(3-Aminopropoxy)pyridin-3-yl]-3-methyl-5-(pyrazin-2-ylamino)-1,2-thiazole-4-carboxamide]",≥ 20
20,"Cc1nsc(Nc2cnc3ccccc3n2)c1C(=O)Nc1cccc(C(=O)OC(C)(C)C)c1 [Example 49, tert-Butyl 3-({[3-methyl-5-(quinoxalin-2-ylamino)-1,2-thiazol-4-yl]carbonyl}amino)-benzoate]",≥ 20
21,"COC(=O)c1cccc(NC(=O)c2c(C)nsc2Nc2cnc3ccccc3n2)c1 [Example 50, Methyl 3-({[3-methyl-5-(quinoxalin-2-ylamino)-1,2-thiazol-4-yl]carbonyl}amino)-benzoate]",2.5
22,"Cc1nsc(Nc2cnc3ccccc3n2)c1C(=O)Nc1cccc(C(=O)N2CCOCC2)c1 [Example 52, 3-Methyl-N-[3-(morpholin-4-ylcarbonyl)phenyl]-5-(quinoxalin-2-ylamino)-1,2-thiazole-4-carboxamide]",18
23,"Cc1nsc(Nc2cnc3ccccc3n2)c1C(=O)Nc1cccc(C(=O)NC(C)(C)C)c1 [Example 53, N-[3-(tert-Butylcarbamoyl)-phenyl]-3-methyl-5-(quinoxalin-2-ylamino)-1,2-thiazole-4-carboxamide]",≥ 20
24,"Cc1nsc(Nc2cnc3ccccc3n2)c1C(=O)Nc1cccc(C(=O)N2CCN(C(=O)OC(C)(C)C)CC2)c1 [Example 55, tert-Butyl 4-[3-({[3-methyl-5-(quinoxalin-2-ylamino)-1,2-thiazol-4-yl]carbonyl}amino)-benzoyl]piperazine-1-carboxylate]",≥ 20
25,"Cc1nsc(Nc2cnc3ccccc3n2)c1C(=O)Nc1cccc(C(=O)N[C@H](C(=O)OC(C)(C)C)[C@@H](C)OC(C)(C)C)c1 [Example 57, tert-Butyl O-tert-butyl-N-[3-({[3-methyl-5-(quinoxalin-2-ylamino)-1,2-thiazol-4 yl]carbonyl}amino)-benzoyl]threoninate]",≥ 20
26,"Cc1nsc(Nc2cnc(C(F)(F)F)cn2)c1C(=O)Nc1ccc(F)c(OCC2CCN(CC(F)(F)F)C2)c1 (stereo not drawn) [Example 318, N-(4-fluoro-3-{[1-(2,2,2-trifluoroethyl)pyrrolidin-3-yl]methoxy}phenyl)-3-methyl-5-{[5-(trifluoromethyl)pyrazin-2-yl]amino}-1,2-thiazole-4-carboxamide]",> 20
27,"Cc1nsc(Nc2cnc(C(F)(F)F)cn2)c1C(=O)Nc1ccc(OC[C@H]2CCN(CC(F)(F)F)C2)nc1 [Example 404, 3-Methyl-N-(6-{[(3S)-1-(2,2,2-trifluoroethyl)pyrrolidin-3-yl]methoxy}pyridin-3-yl)-5-{[5-(trifluoromethyl)pyrazin-2-yl]amino}-1,2-thiazole-4-carboxamide]",> 20
